Patent publication US11053204B2, “Pyrimidinyloxy benzene derivatives as herbicides” (FMC Corporation, priority 2015, dated 2021)

Legend:
Assay type in all cases: in vivo
kochia (Kochia scoparia) = test: Test A postemergence, visual injury rating; conditions: 0 to 100 scale, 0 is no effect, 100 is complete control, approximately 10 days
Summary of the method: (§1)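 Scoring: eye-based comparison with untreated controls, 0 for no effect through 100 for complete control, at about day 10. Treatments: directed soil spray preemergence; foliar spray postemergence on 2–10 cm plants at the one- to two-leaf stage. Medium: loam soil with sand.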

[1] = tested on: galium (catchweed bedstraw, Galium aparine); test: Test A postemergence, visual injury rating; conditions: 0 to 100 scale, 0 is no effect, 100 is complete control, approximately 10 days
Summary of the method: as §1

[2] = tested on: wheat (Triticum aestivum); test: Test A postemergence, visual injury rating; conditions: 0 to 100 scale, 0 is no effect, 100 is complete control, approximately 10 days
Summary of the method: as §1

[3] = tested on: Italian ryegrass (Lolium multiflorum); test: Test A postemergence, visual injury rating; conditions: 0 to 100 scale, 0 is no effect, 100 is complete control, approximately 10 days
Summary of the method: as §1

[4] = tested on: barnyardgrass (Echinochloa crus-galli); test: Test A postemergence, visual injury rating; conditions: 0 to 100 scale, 0 is no effect, 100 is complete control, approximately 10 days
Summary of the method: as §1

[5] = tested on: giant foxtail (Setaria faberii); test: Test A postemergence, visual injury rating; conditions: 0 to 100 scale, 0 is no effect, 100 is complete control, approximately 10 days
Summary of the method: as §1

[6] = tested on: ragweed (common ragweed, Ambrosia elatior); test: Test A postemergence, visual injury rating; conditions: 0 to 100 scale, 0 is no effect, 100 is complete control, approximately 10 days
Summary of the method: as §1

[7] = tested on: blackgrass (Alopecurus myosuroides); test: Test A postemergence, visual injury rating; conditions: 0 to 100 scale, 0 is no effect, 100 is complete control, approximately 10 days
Summary of the method: as §1

[8] = tested on: pigweed (Amaranthus retroflexus); test: Test A postemergence, visual injury rating; conditions: 0 to 100 scale, 0 is no effect, 100 is complete control, approximately 10 days
Summary of the method: as §1

corn (Zea mays) = test: Test A postemergence, visual injury rating; conditions: 0 to 100 scale, 0 is no effect, 100 is complete control, approximately 10 days
Summary of the method: as §1

[9] = tested on: crabgrass, large (large crabgrass, Digitaria sanguinalis); test: Test C postemergence, plant response rating; conditions: Digitaria sanguinalis, post-emergence
Excerpt: (§2) Seeds of plant species selected from blackgrass (Alopecurus myosuroides), ryegrass, Italian (Italian ryegrass, Lolium multiflorum), wheat (winter wheat, Triticum aestivum), galium (catchweed bedstraw, Galium aparine), corn (Zea mays), crabgrass, large (large crabgrass, Digitaria sanguinalis), foxtail, giant (giant foxtail, Setaria faberii), johnsongrass (Sorghum halepense), lambsquarters (Chenopodium album), morningglory (Ipomoea coccinea), nutsedge, yellow (yellow nutsedge, Cyperus esculentus), pigweed (Amaranthus retroflexus), ragweed (common ragweed, Ambrosia elatior), soybean (Glycine max), barnyardgrass (Echinochloa crus-galli), oilseed rape (Brassica napus), pigweed, palmer (palmer pigweed, Amaranthus palmeri), waterhemp (common waterhemp, Amaranthus rudis), velvetleaf (Abutilon theophrasti), kochia (Kochia scoparia), surinam grass (Brachiaria decumbens), nightshade (eastern black nightshade, Solanum ptycanthum), wild poinsettia (Euphorbia heterophylla), windgrass (Apera spica-venti), and oat, wild (wild oat Avena fatua), were planted into a blend of loam soil and sand or a silt loam soil and treated preemergence with test chemicals formulated in a non-phytotoxic solvent mixture which included a surfactant.
(§3) At the same time, plants selected from these crop and weed species and also chickweed (common chickweed, Stellaria media), buckwheat, wild (wild buckwheat, Polygonum convolvulus), wild mustard (Sinapis arvensis), field poppy (Papaver rhoeas), field violet (Viola arvensis), geranium, cutleaf (cutleaf geranium, Geranium dissectum), Canada thistle (Cirsium arvense), and speedwell (bird's-eye speedwell, Veronica persica), were planted in pots containing Sunshine Redi-Earth® planting medium comprising spaghnum peat moss, vermiculite, starter nutrients and dolomitic limestone and treated with postemergence applications of test chemicals formulated in the same manner. Plants ranged in height from 2 to 18 cm (1- to 4-leaf stage) for postemergence treatments. Treated plants and controls were maintained in a greenhouse for 13 to 15 d, after which time all species were compared to controls and visually evaluated. Plant response ratings, summarized in Table C, are based on a scale of 0 to 100 where 0 is no effect and 100 is complete control. A dash (-) response means no test result.

[10] = tested on: ryegrass, Italian (Italian ryegrass, Lolium multiflorum); test: Test C postemergence, plant response rating; conditions: Lolium multiflorum, post-emergence
Excerpt: as §2, §3

[11] = tested on: nutsedge, yellow (yellow nutsedge, Cyperus esculentus); test: Test C preemergence, plant response rating; conditions: Cyperus, pre-emergence, Preemergence
Summary of the method: (§4)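 Visual injury score, 0 = no effect, 100 = complete control, assigned against untreated controls after 13 to 15 d in the greenhouse. Compounds were applied in a surfactant-containing non-phytotoxic solvent mix, preemergence to seeded loam/sand or silt loam soil, or postemergence to 1- to 4-leaf plants (2 to 18 cm).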

[12] = tested on: waterhemp (common waterhemp, Amaranthus rudis); test: Test C preemergence, plant response rating; conditions: Amaranthus tuberculatus, pre-emergence, Preemergence
Summary of the method: as §4

[13] = tested on: lambsquarters (Chenopodium album); test: Test C preemergence, plant response rating; conditions: Chenopodium album, pre-emergence, Preemergence
Summary of the method: as §4

[14] = tested on: wheat (winter wheat, Triticum aestivum); test: Test C preemergence, plant response rating; conditions: Triticum aestivum, pre-emergence, Preemergence
Summary of the method: as §4

[15] = tested on: morningglory (Ipomoea coccinea); test: Test C preemergence, plant response rating; conditions: Ipomoea, pre-emergence, Preemergence
Summary of the method: as §4

[16] = tested on: velvetleaf (Abutilon theophrasti); test: Test C preemergence, plant response rating; conditions: Abutilon theophrasti, pre-emergence, Preemergence
Summary of the method: as §4

[17] = 62 g ai/ha, scale 0 to 100 (0 no effect, 100 complete control)
[18] = 125 g ai/ha, scale 0 to 100 (0 no effect, 100 complete control)

O=C(CCC(F)(F)F)c1c(Cl)cccc1Oc1ncc(Cl)cn1 [Compound 107, 1-[2-chloro-6-[(5-chloro-2-pyrimidinyl)oxy]phenyl]-4,4,4-trifluoro-1-butanone]
Kochia plant response rating (kochia (Kochia scoparia); 31 g ai/ha): 90 | Kochia plant response rating (kochia (Kochia scoparia); 125 g ai/ha): 90 | Galium plant response rating ([1]; 31 g ai/ha): 90 | Galium plant response rating ([1]; 125 g ai/ha): 90 | Wheat plant response rating ([2]; 31 g ai/ha): 0 | Wheat plant response rating ([2]; 125 g ai/ha): 30 | Ryegrass, Italian plant response rating ([3]; 31 g ai/ha): 20 | Ryegrass, Italian plant response rating ([3]; 125 g ai/ha): 80 | Barnyardgrass plant response rating ([4]; 31 g ai/ha): 40 | Barnyardgrass plant response rating ([4]; 125 g ai/ha): 90 | Foxtail, Giant plant response rating ([5]; 31 g ai/ha): 70 | Foxtail, Giant plant response rating ([5]; 125 g ai/ha): 90 | Ragweed plant response rating ([6]; 31 g ai/ha): 20 | Ragweed plant response rating ([6]; 125 g ai/ha): 30 | Blackgrass plant response rating ([7]; 31 g ai/ha): 50 | Blackgrass plant response rating ([7]; 125 g ai/ha): 90 | Pigweed plant response rating ([8]; 31 g ai/ha): 100 | Pigweed plant response rating ([8]; 125 g ai/ha): 100 | Corn plant response rating (corn (Zea mays); 31 g ai/ha): 30 | Corn plant response rating (corn (Zea mays); 125 g ai/ha): 60 | pest or weed control at 16 g/ha ([9]; 16 g ai/ha, scale of 0 to 100): 10% | pest or weed control at 31 g/ha ([9]; 31 g ai/ha, scale 0 to 100): 10% | pest or weed control at 62 g/ha [9, 17]: 30% | pest or weed control at 125 g/ha [9, 18]: 60% | pest or weed control at 16 g/ha ([10]; 16 g ai/ha, scale of 0 to 100): 5% | pest or weed control at 31 g/ha ([10]; 31 g ai/ha, scale 0 to 100): 35% | pest or weed control at 62 g/ha [10, 17]: 20% | pest or weed control at 125 g/ha [10, 18]: 50% | pest or weed control at 125 g/ha ([11]; 125 g ai/ha, scale of 0 to 100): 0% | pest or weed control at 31 g/ha ([11]; 31 g ai/ha, scale 0 to 100): 0% | pest or weed control at 62 g/ha ([11]; 62 g ai/ha, scale 0 to 100): 0% | pest or weed control at 125 g/ha ([12]; 125 g ai/ha, scale of 0 to 100): 100% | pest or weed control at 31 g/ha ([12]; 31 g ai/ha, scale 0 to 100): 98% | pest or weed control at 62 g/ha ([12]; 62 g ai/ha, scale 0 to 100): 100% | pest or weed control at 125 g/ha ([13]; 125 g ai/ha, scale of 0 to 100): 95% | pest or weed control at 31 g/ha ([13]; 31 g ai/ha, scale 0 to 100): 75% | pest or weed control at 62 g/ha ([13]; 62 g ai/ha, scale 0 to 100): 85% | plant injury at 125 g/ha ([14]; 125 g ai/ha, scale of 0 to 100): 35% | plant injury at 31 g/ha ([14]; 31 g ai/ha, scale 0 to 100): 10% | plant injury at 62 g/ha ([14]; 62 g ai/ha, scale 0 to 100): 15% | pest or weed control at 125 g/ha ([15]; 125 g ai/ha, scale of 0 to 100): 85% | pest or weed control at 31 g/ha ([15]; 31 g ai/ha, scale 0 to 100): 0% | pest or weed control at 62 g/ha ([15]; 62 g ai/ha, scale 0 to 100): 40% | pest or weed control at 125 g/ha ([16]; 125 g ai/ha, scale of 0 to 100): 98% | pest or weed control at 31 g/ha ([16]; 31 g ai/ha, scale 0 to 100): 75% | pest or weed control at 62 g/ha ([16]; 62 g ai/ha, scale 0 to 100): 98%
